Source: US10246429B2, “Vinyl fluoride cyclopropyl fused thiazin-2-amine compounds as beta-secretase inhibitors and methods of use” (AMGEN INC., priority 2015, dated 2019)

Columns and labels:
Aβ 40 = experiment: In vivo inhibition of beta-secretase: Aβ 40 reduction in rat CSF and brain; settings: after 4 hrs, versus vehicle;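 also: male Sprague Dawley rats dosed orally in 2% HPMC, 1% Tween80 (pH 2.2) vehicle, Aβ40 quantified by sandwich ECL-based ELISA in CSF and brain supernatants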
From the text: Several animal models, including mouse, rat, dog, and monkey, may be used to screen for inhibition of beta-secretase activity in vivo following administration of a test compound sample. […] A separate group of animals receive 2% hydroxypropyl methylcellulose, 1% Tween80 alone, containing no test compound, and serve as a vehicle-control group. At the end of the test period, animals are sacrificed and brain tissues, plasma or cerebrospinal fluid are collected. […] Homogenates are centrifuged at 355,000 g, 4° C. for 30 minutes. CSF or brain supernatants are then analyzed for the presence of Aβ by specific sandwich ELISA assays based on ECL (Electrochemiluminescence) technology. For example, rat Abeta40 is measured using biotinylated-4G8 (Signet) as a capture antibody and Fab40 (an in-house antibody specific to the C-terminal of Abeta40) as a detection antibody. […] Actual vehicles used: Oral: 2% HPMC, 1% Tween80, pH 2.2

Cathepsin D (CatD) = Cathepsin D (CatD) (Homo sapiens (Human), UniProt P07339); experiment: CatD assay; format: biochemical; settings: read-out: IC50 IP (μM) CatD
Cathepsin D (CatD), sequence (P07339 65-412, species assumed): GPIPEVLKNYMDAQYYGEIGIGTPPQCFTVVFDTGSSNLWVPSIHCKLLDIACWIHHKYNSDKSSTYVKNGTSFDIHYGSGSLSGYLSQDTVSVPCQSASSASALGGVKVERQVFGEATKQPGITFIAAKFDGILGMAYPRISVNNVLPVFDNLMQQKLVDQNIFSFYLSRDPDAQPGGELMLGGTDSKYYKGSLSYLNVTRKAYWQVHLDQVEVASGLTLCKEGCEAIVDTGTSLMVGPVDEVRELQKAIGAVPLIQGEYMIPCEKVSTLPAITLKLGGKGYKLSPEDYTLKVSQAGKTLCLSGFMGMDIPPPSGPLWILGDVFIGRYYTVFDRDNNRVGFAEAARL

BACE2 = BACE2 (Homo sapiens (Human), UniProt Q9Y5Z0); experiment: In vitro enzymatic BACE2 FRET assay; format: biochemical; settings: read-out: IC50 IP (μM) BACE2 Enzyme
BACE2, sequence (Q9Y5Z0 63-518): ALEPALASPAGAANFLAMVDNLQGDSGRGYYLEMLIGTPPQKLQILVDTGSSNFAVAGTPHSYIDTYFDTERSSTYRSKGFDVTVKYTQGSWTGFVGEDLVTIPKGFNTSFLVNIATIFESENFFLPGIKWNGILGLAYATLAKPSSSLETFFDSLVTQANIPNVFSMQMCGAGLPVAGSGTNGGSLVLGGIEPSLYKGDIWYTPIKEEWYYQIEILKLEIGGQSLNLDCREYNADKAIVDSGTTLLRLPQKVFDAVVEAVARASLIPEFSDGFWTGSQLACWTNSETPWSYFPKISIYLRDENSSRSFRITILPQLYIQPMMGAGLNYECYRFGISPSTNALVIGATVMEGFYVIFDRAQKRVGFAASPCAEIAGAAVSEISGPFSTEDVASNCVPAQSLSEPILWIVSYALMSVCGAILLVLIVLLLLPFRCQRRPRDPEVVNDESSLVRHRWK
From the text: (§1) In Vitro Enzymatic BACE1 and BACE2 FRET (Fluorescence Resonance Energy Transfer) Assays (Enzyme Assay Data in Table 1)

BACE1 [1] = molecular target: T1, BACE1 (Homo sapiens (Human), UniProt P56817); experiment: BACE1 cell assay; format: cell-based
Target sequence in this assay (P56817 46-501, species assumed): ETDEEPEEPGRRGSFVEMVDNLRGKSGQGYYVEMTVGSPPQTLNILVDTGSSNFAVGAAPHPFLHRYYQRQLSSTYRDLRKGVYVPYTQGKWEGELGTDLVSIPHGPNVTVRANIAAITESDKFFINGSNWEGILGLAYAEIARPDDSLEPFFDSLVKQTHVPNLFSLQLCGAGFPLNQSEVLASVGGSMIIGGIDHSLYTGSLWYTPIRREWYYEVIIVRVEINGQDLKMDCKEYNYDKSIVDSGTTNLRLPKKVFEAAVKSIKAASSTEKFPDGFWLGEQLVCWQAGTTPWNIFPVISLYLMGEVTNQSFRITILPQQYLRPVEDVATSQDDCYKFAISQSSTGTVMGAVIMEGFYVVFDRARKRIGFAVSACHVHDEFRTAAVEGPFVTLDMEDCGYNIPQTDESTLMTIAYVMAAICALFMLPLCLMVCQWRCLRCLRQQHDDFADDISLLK

BACE1 [2] = molecular target: T1, BACE1; experiment: In vitro enzymatic BACE1 FRET assay; format: biochemical; settings: read-out: IC50 IP (μM) BACE1 Enzyme
Target sequence in this assay (P56817 46-501): as the sequence (P56817 46-501, species assumed) above
From the text: as §1

[3] = read-out: IC50 IP (μM) BACE1 Cell

CC#CCOc1cnc(/C(F)=C/c2ccc(F)c([C@@]3(C)N=C(N)S[C@@]4(S(C)(=O)=O)C[C@H]43)c2)cn1 [Example 231, (1R,5S,6S)-5-(5-((Z)-2-(5-(but-2-yn-1-yloxy)pyrazin-2-yl)-2-fluorovinyl)-2-fluorophenyl)-5-methyl-1-(methylsulfonyl)-2-thia-4-azabicyclo[4.1.0]hept-3-en-3-amine]
% Aβ 40 reduction in rat CSF at 10 mpk (Aβ 40): 37%
% Aβ 40 reduction in rat brain at 10 mpk (Aβ 40): 26%
IC50 (Cathepsin D (CatD)): 47.8 µM
IC50 (BACE2): 0.03 µM
IC50 (BACE1 [1]; [3]): 0.0029 µM
IC50 (BACE1 [2]): 0.0002 µM

C[C@@H]1[C@H](F)CCN1C(=O)[C@]12C[C@H]1[C@@](C)(c1cc(/C=C(\F)c3ccc(C#N)cn3)ccc1F)N=C(N)S2 [Example 307, 6-((Z)-2-(3-((1S,5S,6S)-3-amino-1-((2R,3R)-3-fluoro-2-methylpyrrolidine-1-carbonyl)-5-methyl-2-thia-4-azabicyclo[4.1.0]hept-3-en-5-yl)-4-fluorophenyl)-1-fluorovinyl)nicotinonitrile]
% Aβ 40 reduction in rat CSF at 10 mpk (Aβ 40): 67%
% Aβ 40 reduction in rat brain at 10 mpk (Aβ 40): 59%
IC50 (Cathepsin D (CatD)): 11 µM
IC50 (BACE2): 0.1 µM
IC50 (BACE1 [1]; [3]): 0.002 µM
IC50 (BACE1 [2]): 0.002 µM

C[C@]1(c2cc(/C=C(\F)c3ccc(C#N)cn3)ccc2F)N=C(N)S[C@@]2(C(=O)N3CC[C@@H](F)C3)C[C@H]21 [Example 126, 6-((Z)-2-(3-((1S,5S,6S)-3-amino-1-((R)-3-fluoropyrrolidine-1-carbonyl)-5-methyl-2-thia-4-azabicyclo[4.1.0]hept-3-en-5-yl)-4-fluorophenyl)-1-fluorovinyl)nicotinonitrile]
% Aβ 40 reduction in rat CSF at 10 mpk (Aβ 40): 73%
% Aβ 40 reduction in rat brain at 10 mpk (Aβ 40): 73%
IC50 (Cathepsin D (CatD)): 390 µM
IC50 (BACE2): 0.0299 µM

C[C@]1(c2cc(/C=C(\F)c3ccc(C#N)cn3)ccc2F)N=C(N)S[C@@]2(C(=O)N3CCC(F)(F)C3)C[C@H]21 [Example 122, 6-((Z)-2-(3-((1S,5S,6S)-3-amino-1-(3,3-difluoropyrrolidine-1-carbonyl)-5-methyl-2-thia-4-azabicyclo[4.1.0]hept-3-en-5-yl)-4-fluorophenyl)-1-fluorovinyl)nicotinonitrile]
% Aβ 40 reduction in rat CSF at 10 mpk (Aβ 40): 67%
% Aβ 40 reduction in rat brain at 10 mpk (Aβ 40): 44%

C#CCOc1cnc(/C(F)=C/c2ccc(F)c([C@@]3(C)N=C(N)S[C@@]4(C(=O)N5CCOCC5)C[C@H]43)c2)cn1 [Example 292, ((1S,5S,6S)-3-amino-5-(2-fluoro-5-((Z)-2-fluoro-2-(5-(prop-2-yn-1-yloxy)pyrazin-2-yl)vinyl)phenyl)-5-methyl-2-thia-4-azabicyclo[4.1.0]hept-3-en-1-yl)(morpholino)methanone]
% Aβ 40 reduction in rat CSF at 10 mpk (Aβ 40): 70%
% Aβ 40 reduction in rat brain at 10 mpk (Aβ 40): 75%
IC50 (BACE1 [1]; [3]): 0.0007 µM

CN(C)C(=O)[C@]12C[C@H]1[C@@](C)(c1cc(/C=C(\F)c3ccc(C#N)cn3)ccc1F)N=C(N)S2 [Example 106, (1S,5S,6S)-3-amino-5-(5-((Z)-2-(5-cyanopyridin-2-yl)-2-fluorovinyl)-2-fluorophenyl)-N,N,5-trimethyl-2-thia-4-azabicyclo[4.1.0]hept-3-ene-1-carboxamide]
% Aβ 40 reduction in rat CSF at 10 mpk (Aβ 40): 78%
% Aβ 40 reduction in rat brain at 10 mpk (Aβ 40): 71%
IC50 (Cathepsin D (CatD)): 148 µM
IC50 (BACE2): 0.0143 µM

C[C@]1(c2cc(/C=C(\F)c3ccc(C#N)cn3)ccc2F)N=C(N)S[C@@]2(C(=O)N3CCO[C@@H]4C[C@@H]43)C[C@H]21 [Example 312, 6-((Z)-2-(3-((1S,5S,6S)-3-amino-1-((1R,6S)-2-oxa-5-azabicyclo[4.1.0]heptane-5-carbonyl)-5-methyl-2-thia-4-azabicyclo[4.1.0]hept-3-en-5-yl)-4-fluorophenyl)-1-fluorovinyl)nicotinonitrile]
% Aβ 40 reduction in rat CSF at 10 mpk (Aβ 40): 66%
% Aβ 40 reduction in rat brain at 10 mpk (Aβ 40): 56%

CN(C)C(=O)[C@]12C[C@H]1[C@@](C)(c1cc(/C=C(\F)c3ccc(Cl)cn3)ccc1F)N=C(N)S2 [Example 102, (1S,5S,6S)-3-amino-5-(5-((Z)-2-(5-chloropyridin-2-yl)-2-fluorovinyl)-2-fluorophenyl)-N,N,5-trimethyl-2-thia-4-azabicyclo[4.1.0]hept-3-ene-1-carboxamide]
% Aβ 40 reduction in rat CSF at 10 mpk (Aβ 40): 55%
% Aβ 40 reduction in rat brain at 10 mpk (Aβ 40): 20%
IC50 (Cathepsin D (CatD)): 329 µM
IC50 (BACE2): 0.002 µM

C#CCOc1cnc(/C(F)=C/c2ccc(F)c([C@@]3(C)N=C(N)S[C@@]4(c5ncc(C)o5)C[C@@H]34)c2)cn1 [Example 345, (1S,5S,6S)-5-(2-fluoro-5-((Z)-2-fluoro-2-(5-(prop-2-yn-1-yloxy)pyrazin-2-yl)vinyl)phenyl)-5-methyl-1-(5-methyloxazol-2-yl)-2-thia-4-azabicyclo[4.1.0]hept-3-en-3-amine]
IC50 (Cathepsin D (CatD)): 88.9 µM
IC50 (BACE2): 0.52 µM
IC50 (BACE1 [1]; [3]): 0.156 µM
IC50 (BACE1 [2]): 0.0063 µM

COC(=O)[C@]12C[C@H]1[C@@](C)(c1cc(/C=C(\F)c3ccc(Cl)cn3)cc(F)c1F)N=C(N)S2 [Example 248, (1S,5S,6S)-methyl 3-amino-5-(5-((Z)-2-(5-chloropyridin-2-yl)-2-fluorovinyl)-2,3-difluorophenyl)-5-methyl-2-thia-4-azabicyclo[4.1.0]hept-3-ene-1-carboxylate]
IC50 (Cathepsin D (CatD)): 200 µM
IC50 (BACE2): 0.083 µM
IC50 (BACE1 [1]): 1.59 µM
IC50 (BACE1 [2]): 0.0625 µM

CNC(=O)[C@]12C[C@H]1[C@@](C)(c1cc(/C=C(\F)c3cnc(Cl)cn3)ccc1F)N=C(N)S2 [Example 352, (1S,5S,6S)-3-amino-5-(5-((Z)-2-(5-chloropyrazin-2-yl)-2-fluorovinyl)-2-fluorophenyl)-N,5-dimethyl-2-thia-4-azabicyclo[4.1.0]hept-3-ene-1-carboxamide]
IC50 (Cathepsin D (CatD)): 101 µM
IC50 (BACE2): 0.029 µM
IC50 (BACE1 [1]; [3]): 0.006 µM
IC50 (BACE1 [2]): 0.007 µM

C#CCOc1cnc(/C(F)=C/c2ccc(F)c([C@@]3(C)N=C(N)S[C@@]4(C(=O)NC)C[C@H]43)c2)cn1 [Example 151, (1S,5S,6S)-3-amino-5-(2-fluoro-5-((Z)-2-fluoro-2-(5-(prop-2-yn-1-yloxy)pyrazin-2-yl)vinyl)phenyl)-N,5-dimethyl-2-thia-4-azabicyclo[4.1.0]hept-3-ene-1-carboxamide]
% Aβ 40 reduction in rat CSF at 10 mpk (Aβ 40): 64%
% Aβ 40 reduction in rat brain at 10 mpk (Aβ 40): 45%
IC50 (Cathepsin D (CatD)): 135 µM
IC50 (BACE2): 0.396 µM

CN(C)C(=O)[C@]12C[C@H]1[C@@](C)(c1cc(/C(F)=C/c3ccc(C#N)cc3)ccc1F)N=C(N)S2 [Example 186, (1S,5S,6S)-3-amino-5-(5-((Z)-2-(4-cyanophenyl)-1-fluorovinyl)-2-fluorophenyl)-N,N,5-trimethyl-2-thia-4-azabicyclo[4.1.0]hept-3-ene-1-carboxamide]
IC50 (Cathepsin D (CatD)): 48.7 µM
IC50 (BACE2): 0.302 µM
IC50 (BACE1 [1]; [3]): 0.575 µM
IC50 (BACE1 [2]): 0.128 µM

CC(=O)[C@]12C[C@H]1[C@@](C)(c1cc(/C=C(\F)c3cnc(OCC(F)(F)F)cn3)ccc1F)N=C(N)S2 [Example 236, 1-((1S,5S,6S)-3-amino-5-(2-fluoro-5-((Z)-2-fluoro-2-(5-(2,2,2-trifluoroethoxy)pyrazin-2-yl)vinyl)phenyl)-5-methyl-2-thia-4-azabicyclo[4.1.0]hept-3-en-1-yl)ethanone]
IC50 (Cathepsin D (CatD)): 400 µM
IC50 (BACE2): 1.28 µM
IC50 (BACE1 [1]; [3]): 0.284 µM
IC50 (BACE1 [2]): 0.118 µM

C[C@]1(c2cc(/C=C(\F)c3ccc(Br)cn3)ccc2F)N=C(N)S[C@@]2(C(=O)N3CCOCC3)C[C@H]21 [Example 338, ((1S,5S,6S)-3-amino-5-(5-((Z)-2-(5-bromopyridin-2-yl)-2-fluorovinyl)-2-fluorophenyl)-5-methyl-2-thia-4-azabicyclo[4.1.0]hept-3-en-1-yl)(morpholino)methanone]
IC50 (Cathepsin D (CatD)): 353 µM
IC50 (BACE2): 0.005 µM
IC50 (BACE1 [1]; [3]): 0.0034 µM
IC50 (BACE1 [2]): 0.0011 µM

CNC(=O)[C@]12C[C@H]1[C@@](C)(c1cc(/C=C(\F)c3ccc(Br)cn3)ccc1F)N=C(N)S2 [Example 355, (1S,5S,6S)-3-amino-5-(5-((Z)-2-(5-bromopyridin-2-yl)-2-fluorovinyl)-2-fluorophenyl)-N,5-dimethyl-2-thia-4-azabicyclo[4.1.0]hept-3-ene-1-carboxamide]
IC50 (Cathepsin D (CatD)): 141 µM
IC50 (BACE2): 0.069 µM
IC50 (BACE1 [1]; [3]): 0.023 µM
IC50 (BACE1 [2]): 0.01 µM

C[C@]1(c2cc(/C=C(\F)c3ccc(C#N)cn3)ccc2F)N=C(N)S[C@@]2(C(=O)N3CC[C@H](F)C3)C[C@H]21 [Example 127, 6-((Z)-2-(3-((1S,5S,6S)-3-amino-1-((S)-3-fluoropyrrolidine-1-carbonyl)-5-methyl-2-thia-4-azabicyclo[4.1.0]hept-3-en-5-yl)-4-fluorophenyl)-1-fluorovinyl)nicotinonitrile]
% Aβ 40 reduction in rat CSF at 10 mpk (Aβ 40): 73%
% Aβ 40 reduction in rat brain at 10 mpk (Aβ 40): 76%
IC50 (Cathepsin D (CatD)): 131 µM
IC50 (BACE2): 0.0519 µM

CN(C)C(=O)[C@]12C[C@H]1[C@@](C)(c1cc(/C=C(\F)c3cnc(OCC4CC4)cn3)ccc1F)N=C(N)S2 [Example 211, (1S,5S,6S)-3-amino-5-(5-((Z)-2-(5-(cyclopropylmethoxy)pyrazin-2-yl)-2-fluorovinyl)-2-fluorophenyl)-N,N,5-trimethyl-2-thia-4-azabicyclo[4.1.0]hept-3-ene-1-carboxamide]
IC50 (Cathepsin D (CatD)): 67.8 µM
IC50 (BACE2): 0.044 µM
IC50 (BACE1 [1]; [3]): 0.247 µM
IC50 (BACE1 [2]): 0.022 µM

C[C@H]1CN(C(=O)[C@]23C[C@H]2[C@@](C)(c2cc(/C=C(\F)c4ccc(C#N)cn4)ccc2F)N=C(N)S3)CCO1 [Example 321, 6-((Z)-2-(3-((1S,5S,6S)-3-amino-5-methyl-1-((S)-2-methylmorpholine-4-carbonyl)-2-thia-4-azabicyclo[4.1.0]hept-3-en-5-yl)-4-fluorophenyl)-1-fluorovinyl)nicotinonitrile]
IC50 (Cathepsin D (CatD)): 578 µM
IC50 (BACE2): 0.111 µM
IC50 (BACE1 [1]; [3]): 0.0027 µM
IC50 (BACE1 [2]): 0.0035 µM
